For eleven compounds, chromatographic logP and efficiency results are on record in patent publication US20060281767A1, “Triazoloypyrimidines” (BAYER CROPSCIENCE AKTIENGESELLSCHAFT, priority 2003, published 2006).

Series [1] is described as follows: LogP determination by HPLC (EEC-Directive 79/831 Annex V. A8). In kind it is physicochemical. The following applies: HPLC with acetonitrile/0.1% aqueous phosphoric acid gradient, gradient method.
Another series concerns Venturia inaequalis. Briefly: Venturia test (apple)/protective. The following applies: protective spray, assessment 10 days after inoculation, 0% = control, 100% = no attack. In kind it is in vivo. An excerpt:
Venturia Test (apple)/protective • Solvent: 24.5 parts by weight of acetone • 24.5 parts by weight of dimethylacetamide • Emulsifier: 1 part by weight of alkyl-aryl-polyglycolether One part by weight of active substance is mixed with the specified quantities of solvent and emulsifier and the concentrate diluted with water to the desired concentration to prepare a suitable active substance preparation. To test the protective efficiency, young plants are sprayed with the active substance preparation in the specified amount. After drying the spray coating, the plants are inoculated with an aqueous conodia suspension of the apple scab pathogen Venturia inaequalis and are then left for 1 day at about 20° C. and 100% relative humidity in an incubation cabinet. The plants are then placed in a greenhouse at about 21° C. and a relative humidity of about 90%. The assessment is made 10 days after the inoculation. In this situation 0% means an efficiency corresponding to that of the control whereas an efficiency of 100% means that no attack is observed.

Turning to `CC(Oc1c(-c2ncncc2Cl)c(Cl)nc2ncnn12)C(F)(F)F` (stereo not drawn) [Example 1, 5-chloro-6-(5-chloro-pyrimidin4-yl)-7-(2,2,2-trifluoro-isopropoxy)[1,2,4]triazolo[1,5-a]pyrimidine], the chromatographic logP – broadly, lipophilicity estimated from chromatographic retention – in series [1] was 2.43.
Compound `CC(C)C(C)Sc1c(-c2ncncc2Cl)c(Cl)nc2ncnn12` (stereo not drawn) [Example 2] gave an efficiency in the series on Venturia inaequalis of more than 90%. Also, the chromatographic logP in series [1] worked out at 3.07.
`FC(F)(F)c1cccnc1-c1c(Cl)nc2ncnn2c1Cl` [Example 5, 5,7-dichloro-6-(3-trifluoromethyl-pyridin-2-yl)-[1,2,4]triazolo[1,5-a]pyrimidine] displayed a chromatographic logP in series [1] of 1.97.
In series [1], `Clc1cncnc1-c1c(Cl)nc2ncnn2c1Cl` [Example 6, 5,7-dichloro-6-(5-chloro-4-pyrimidinyl)[1,2,4]triazolo[1,5-a]pyrimidine] registered a chromatographic logP of 1.43.
Still for that read-out and setting: for `Clc1ncsc1-c1c(Cl)nc2nc(C3CC3)nn2c1Cl` [Example 9, 5,7-dichloro-2-cyclopropyl-6-(4-chloro-thiazol-5-yl)-[1,2,4]-triazolo[1,5-a]pyrimidine] the value was 2.46; for `Oc1nc2ncnn2c(O)c1-c1ncccc1C(F)(F)F` [Example 10, 6-(3-trifluoromethyl-pyridin-2-yl)-[1,2,4]triazolo[1,5-a]pyrimidin-5,7-diole], -0.23; for `Oc1nc2ncnn2c(O)c1-c1ncncc1Cl` [Example 11, 6-(5-chloro-4-pyrimidinyl)[1,2,4]triazolo[1,5-a]pyrimidin-5,7-diole], -0.23.
In turn, `Oc1nc2nc(C3CC3)nn2c(O)c1-c1scnc1Cl` [Example 12, 2-cyclopropyl-6-(4-chloro-thiazol-5-yl)-[1,2,4]triazolo[1,5-a]pyrimidin-5,7-diol] yielded a chromatographic logP in series [1] of 0.1.
Same read-out and setting: the figure for `COC(=O)C(C(=O)OC)c1ncccc1C(F)(F)F` [Example 13, 2-[(3-trifluoromethyl)-pyridin-2-yl]-malonic acid dimethylester] is 2.05; for `COC(=O)C(C(=O)OC)c1ncncc1Cl` [Example 14, 2-(5-chloro-pyrimidin-4-yl)-malonic acid dimethylester] it is 1.33; for `Clc1cncnc1Cl` [Example 15, 4,5-dichloropyrimidine] it is 1.35.
